Results on eleven molecules are retold here after patent US20250346606A1, “CAMPTOTHECIN COMPOUND, PREPARATION METHOD THEREFOR, AND APPLICATION THEREOF” (SICHUAN KELUN-BIOTECH BIOPHARMACEUTICAL CO., LTD., priority 2021, published 2025).

Read-outs that look alike come from different tables or passages of the source.

What all share (format): cell-based, Human
Assay [1] relates to HT29 cells. Put plainly: Inhibitory effect of compounds on HT29 cell proliferation. Particulars: read-out: IC50, inhibitory activity on HT29 cell proliferation. The protocol:
(1) Cell plating: First, tumor cells HT29 were cultured in corresponding medium, then digested with trypsin, centrifuged, resuspended, and counted, and the cells were adjusted to an appropriate concentration for plating.
(§1) Co-incubation of the compound of the present disclosure and tumor cells: after the cells adhered to the wall, the medium was removed, and the diluted bioactive molecule (the compound of the present disclosure) was added to the wells of the above plate, and incubated for 72 h.
(§2) In vitro cell viability detection: After the incubation, 50 μL of Cell Counting-Lite™ 2.0 reagent (Vazyme/Novazyme) was added to each well, shaken and mixed well in the dark, reacted for 10 minutes, and then the detection was carried out with a microplate reader (manufacturer: BMG, Model: PHERAStar-FS) for reading. The background RLU was obtained by using cell-free medium (with Cell Counting-Lite™), and the vehicle RLU was obtained by using cell-containing medium (with Cell Counting-Lite™). Cell inhibition rate=1−(sample RLU−background RLU)/(solvent RLU−background RLU)×100%. According to the four-parameter model fitting curve, the half maximal inhibitory concentration (IC50) of the compound was calculated, and the detection results were shown in Table 2.

The subject of assay [2] is NCI-N87 cells. In words: Inhibitory effect of compounds on NCI-N87 cell proliferation. The protocol:
(1) Cell plating: First, tumor cells NCI-N87 were cultured in corresponding medium, then digested with trypsin, centrifuged, resuspended, and counted, and the cells were adjusted to an appropriate concentration for plating.
as §1
as §2, with “Table 12.” for “Table 2.”

The subject of assay [3] is Jeko-1 cells. In words: Inhibitory effect of compounds on Jeko-1 cell proliferation. Particulars: read-out: IC50, inhibitory activity on Jeko-1 cell proliferation. The protocol: (1) Cell plating: First, tumor cells Jeko-1 were cultured in corresponding medium, then digested with trypsin, centrifuged, resuspended, and counted, and the cells were adjusted to an appropriate concentration for plating.
as §1
as §2, with “Table 20.” for “Table 2.”

Assay [4] deals with MDA-MB-231 cells. In words: Inhibitory effect of compounds on MDA-MB-231 cell proliferation. The note with it: read-out: IC50, inhibitory activity on MDA-MB-231 cell proliferation. The protocol: (1) Cell plating: First, tumor cells MDA-MB-231 were cultured in corresponding medium, then digested with trypsin, centrifuged, resuspended, and counted, and the cells were adjusted to an appropriate concentration for plating.
as §1
as §2, with “Table 18.” for “Table 2.”

For assay [5], the system named is NCI-H358 cells. In words: Inhibitory effect of compounds on NCI-H358 cell proliferation. As for the experimental part:
(1) Cell plating: First, tumor cells NCI-H358 were cultured in corresponding medium, then digested with trypsin, centrifuged, resuspended, and counted, and the cells were adjusted to an appropriate concentration for plating.
as §1
as §2, with “Table 10.” for “Table 2.”

Assay [6] deals with A549 cells. Put plainly: Inhibitory effect of compounds on A549 cell proliferation. Particulars: Homo sapiens, A549, 72 h, read-out: IC50, inhibitory activity on A549 cell proliferation. As for the experimental part:
(1) Cell plating: First, tumor cells A549 were cultured in the corresponding medium, then digested with trypsin, centrifuged and resuspended, and counted, and the cells were adjusted to an appropriate concentration for plating.
as §1
as §2, with “cell activity” for “cell viability”, “Table 4.” for “Table 2.”

Assay [7] concerns SKOV-3 cells. Put plainly: Inhibitory effect of compounds on SKOV-3 cell proliferation. Particulars: Homo sapiens, SK-OV-3, 72 h, read-out: IC50, inhibitory activity on SKOV-3 cell proliferation. The protocol:
(1) Cell plating: First, tumor cells SKOV-3 were cultured in corresponding medium, then digested with trypsin, centrifuged, resuspended, and counted, and the cells were adjusted to an appropriate concentration for plating.
as §1
as §2, with “Table 8.” for “Table 2.”

Setting [8] is: Homo sapiens, NCI-N87, 72 h, read-out: IC50, inhibitory activity on NCI-N87 cell proliferation, NCI-N87 human gastric cancer cells, 72 h incubation, Cell Counting-Lite 2.0.
[9] abbreviates: NCI-H358 human non-small cell lung cancer cells, 72 h incubation, Cell Counting-Lite 2.0, read-out: IC50, inhibitory activity on NCI-H358 cell proliferation.
Where [10] appears, read: NCI-N87 human gastric cancer cells, 72 h incubation, Cell Counting-Lite 2.0, read-out: IC50, inhibitory activity on NCI-N87 cell proliferation.
Setting [11] is: Jeko-1 human mantle cell lymphoma cells, 72 h incubation, Cell Counting-Lite 2.0.
[12] abbreviates: HT29 human colon cancer cells, 72 h incubation, Cell Counting-Lite 2.0.
Setting [13] is: Homo sapiens, NCI-H358, 72 h, read-out: IC50, inhibitory activity on NCI-H358 cell proliferation, NCI-H358 human non-small cell lung cancer cells, 72 h incubation, Cell Counting-Lite 2.0.

For the molecule `CC[C@@]1(O)C(=O)OCc2c1cc1n(c2=O)Cc2c-1nc1cc(F)c(C)c3c1c2[C@@H](CN)CC3` (single isomer, unassigned) [Example 13 (5-7-A)], the IC50 came to 3.13 nM in assay [1] (Homo sapiens, HT-29, 72 h); 6.03 nM in assay [2] (setting [8]); 0.16 nM in assay [3] (Homo sapiens, JeKo-1, 72 h).
Consider `CC[C@@]1(O)C(=O)OCc2c1cc1n(c2=O)Cc2c-1nc1cc(F)c(C)c3c1c2[C@H](CN)CC3` (single isomer, unassigned) [Example 13 (5-7-B)], for which the IC50 in assay [1] (Homo sapiens, HT-29, 72 h) was 4.66 nM; in assay [2] (setting [8]), 7.31 nM; in assay [4] (Homo sapiens, MDA-MB-231, 72 h), 172 nM; in assay [3] (Homo sapiens, JeKo-1, 72 h), 0.18 nM.
For `CC[C@@]1(O)C(=O)OCc2c1cc1n(c2=O)Cc2c-1nc1cc(F)c(C)c3c1c2[C@@H](NC(=O)[C@H](O)CN(C)C)CC3` (single isomer, unassigned) [Example 20 (1-10-A)], the IC50 in assay [1] (Homo sapiens, HT-29, 72 h) turned out to be 61.6 nM; in assay [4] (Homo sapiens, MDA-MB-231, 72 h), 97.6 nM.
As for `CC[C@@]1(O)C(=O)OCc2c1cc1n(c2=O)Cc2c-1nc1cc(F)c(C)c3c1c2[C@@H](NC(=O)[C@@H](O)CN(C)C)CC3` (single isomer, unassigned) [Example 20 (1-10-B)], the IC50 was 10.3 nM in assay [1] (Homo sapiens, HT-29, 72 h) and 27.2 nM in assay [4] (Homo sapiens, MDA-MB-231, 72 h).
As for `C=C[C@H](O)C(=O)N[C@H]1CCc2c(C)c(F)cc3nc4c(c1c23)Cn1c-4cc2c(c1=O)COC(=O)[C@]2(O)CC` [Example 2 (1-7-A)], the IC50 came to 11.4 nM in assay [5] (setting [9]), 2.7 nM in assay [2] (setting [10]) and 0.15 nM in assay [3] (setting [11]).
As to `C=C[C@@H](O)C(=O)N[C@H]1CCc2c(C)c(F)cc3nc4c(c1c23)Cn1c-4cc2c(c1=O)COC(=O)[C@]2(O)CC` [Example 2 (1-7-B)], the IC50 in assay [5] (setting [9]) was determined as 51.5 nM; in assay [2] (setting [10]), 5.48 nM; in assay [3] (setting [11]), 0.66 nM.
Take `CC[C@@]1(O)C(=O)OCc2c1cc1n(c2=O)Cc2c-1nc1cc(Cl)c(C)c3c1c2[C@H](NC(=O)C1(O)CC1)CC3` [Example 7 (2-20-B), N-((1R,9S)-5-chloro-9-ethyl-9-hydroxy-4-methyl-10,13-dioxo-2,3,9,10,13,15-hexahydro-1H,12H-benzo[de]pyrano[3′,4′:6,7]indolizino[1,2-b]quinolin-1-yl)-1-hydroxycyclopropane-1-carboxamide]: the IC50 came out at 4.03 nM in assay [1] (Homo sapiens, HT-29, 72 h) and 23.1 nM in assay [6].
Take `CC[C@@]1(O)C(=O)OCc2c1cc1n(c2=O)Cc2c-1nc1cc(F)c(Cl)c3c1c2[C@@H](NC(=O)CO)CC3` [Example 9 (3-4-A), N-((1S,9S)-4-Chloro-9-ethyl-5-fluoro-9-hydroxy-10,13-dioxo-2,3,9,10,13,15-hexahydro-1H, 12H-benzo[de]pyrano[3′,4:6,7]indolizino[1,2-b]quinolin-1-yl)-2-hydroxyacetamide]: the IC50 in assay [1] (setting [12]) worked out at 5.55 nM; in assay [2] (setting [10]) it was 4.38 nM; in assay [4] (MDA-MB-231 human breast cancer cells, 72 h incubation, Cell Counting-Lite 2.0), 285 nM; in assay [3] (setting [11]) it was 0.27 nM.
As to `CC[C@@]1(O)C(=O)OCc2c1cc1n(c2=O)Cc2c-1nc1cc(F)c(Cl)c3c1c2[C@H](NC(=O)CO)CC3` [Example 9 (3-4-B), N-((1R,9S)-4-Chloro-9-ethyl-5-fluoro-9-hydroxy-10,13-dioxo-2,3,9,10,13,15-hexahydro-1H, 12H-benzo[de]pyrano[3′,4:6,7]indolizino[1,2-b]quinolin-1-yl)-2-hydroxyacetamide], the results for the IC50 in assay [1] (setting [12]), in assay [2] (setting [10]) and in assay [3] (setting [11]) were 4.98 nM, 6.51 nM and 0.15 nM, respectively.
For the molecule `CC[C@@]1(O)C(=O)OCc2c1cc1n(c2=O)Cc2c-1nc1cc3c(cc1c2CCNC1CC1)OCO3` [Example 21 (4-14), (S)-14-(2-(Cyclopropylamino)ethyl)-7-ethyl-7-hydroxy-7H-[1,3]dioxolano[4,5-g]pyrano[3′,4′:6,7]indolizino[1,2-b]quinolin-8,11 (10H,13H)-dione], the IC50 in assay [1] (Homo sapiens, HT-29, 72 h) came out at 0.56 nM; in assay [7] it was 2.16 nM; in assay [5] (setting [13]), 12 nM; in assay [3] (Homo sapiens, JeKo-1, 72 h) it was 0.34 nM.
For `CC[C@@]1(O)C(=O)OCc2c1cc1n(c2=O)Cc2c-1nc1cc3c(cc1c2CCNCCOC)OCO3` [Example 22 (4-15), (S)-7-Ethyl-7-hydroxy-14-(2-((2-methoxyethyl)amino)ethyl)-7H-[1,3]dioxolano[4,5-g]pyrano[3′,4′:6,7]indolizino[1,2-b]quinolin-8,11 (10H,13H)-dione], the IC50 in assay [1] (Homo sapiens, HT-29, 72 h) amounted to 5.2 nM; in assay [5] (setting [13]), 17.8 nM; in assay [4] (Homo sapiens, MDA-MB-231, 72 h), 175 nM; in assay [3] (Homo sapiens, JeKo-1, 72 h), 0.11 nM.
